Where “and” joins values, the source holds several entries; their conditions need not be identical. Identical values can stand only once. Like-named read-outs stand apart in the source and are kept apart here.
What was measured:
microorganisms = conditions: gaseous state; cited from earlier work
[1] = system: C. glutamicum M2014 (parent); assay: Test tube growth in methionine-free medium, DMDS added directly; conditions: M2014; MF + Met 40 mg/l; 36 hours at 30° C.
From the text: (§1) M2014 was transformed with plasmid pOM86 (FIG. 9) (SEQ ID NO:8) to yield a “Campbell in” strain. The “Campbell in” strain was then “Cambelled out” to yield a “Campbell out” strain named OM63.

[2] = system: C. glutamicum OM63 (ΔmetF); type: cell-based; conditions: MF + Met 40 mg/l, 36 hours at 30° C.
From the text: as §1

C. glutamicum M2014 [3] = assay: Test tube growth in methionine-free medium with Amberlite XAD4 as DMDS delivery system; conditions: M2014, XAD4
Description: (§2) To this end, test tube experiments using 5 ml of medium were performed on OM63 and M2014.
(§3) To each test tube 100 μl of a sterile suspension of XAD4 in water (50% v/v) was added.

[4] = system: C. glutamicum OM63 (ΔmetF)
Description: as §2, §3

[5] = system: C. glutamicum OM101C (ΔmetF, ΔmetB); type: cell-based; conditions: met 100 mg/l, XAD4, 24 hours at 30° C.
Description: as §3

[6] = system: C. glutamicum OM246C (ΔmetE, ΔmetH); type: cell-based; conditions: met 100 mg/l, XAD4, 24 hours at 30° C.
Description: as §3

C. glutamicum M2014 [7] = assay: Test tube growth in methionine-free medium with mineral oil as DMDS delivery system; conditions: MF + Met 100 mg/l, no oil, 24 hours at 30° C.
From the text: (§4) Other possible delivery systems include synthetic oils, organic solvents, chloro-carbons, fluoro-carbons, or chloro-fluoro-carbons.

[8] = system: C. glutamicum OM246C (ΔmetH, ΔmetE); conditions: OM246C, 24 hours at 30° C.
From the text: as §4

C. glutamicum M2014 [9] = assay: Test tube growth in methionine-free medium with canola oil as DMDS delivery system; type: cell-based; conditions: 24 hours at 30° C.
From the text: as §4

[10] = system: C. glutamicum OM246C (ΔmetH, ΔmetE); type: cell-based; conditions: 24 hours at 30° C.
From the text: as §4

[11] = system: C. glutamicum OM158 (ΔmetF, ΔmetY); conditions: Met 100 mg/ml, XAD4, 60 hours at 30° C.
Description: (§5) A test tube experiment was performed with M2014 derivatives that contain different combinations of deletions of metY, metB, and metF. […] The inoculum was approximately 5×10^3 cells per tube. Cells were grown at 30° C. in a platform shaker for 60 hours, and cell densities were measured at OD600.

[12] = system: C. glutamicum OM101 (ΔmetF, ΔmetB); conditions: Met 100 mg/ml, XAD4, 60 hours at 30° C.
Description: as §5

[13] = system: C. glutamicum OM174 (ΔmetF, ΔmetB, ΔmetY); conditions: Met 100 mg/ml, XAD4, 60 hours at 30° C.
Description: as §5

## C[Se][Se]C [DMDSe, dimethyldiselenide]
microorganisms
  toxicity to microorganisms: toxic to microorganisms in a gaseous state

## CSCC[C@H](N)C(=O)O [Met, methionine, reference compound]
[1]
  Optical densities at 600 nm: 5.8
[2]
  Optical densities at 600 nm: 5.2
C. glutamicum M2014 [3]; Met 40 mg/l, 42 hours at 30° C.
  Optical densities at 600 nm: 7.1
C. glutamicum M2014 [3]; Met 100 mg/ml, 60 hours at 30° C.
  OD600: 2.2 and 2.3
C. glutamicum M2014 [3]; met 100 mg/l, 24 hours at 30° C.
  Optical densities at 600 nm: 4.4 and 4.7
[4]; Met 40 mg/l, XAD4, 42 hours at 30° C.
  Optical densities at 600 nm: 4.4
[4]; Met 100 mg/ml, XAD4, 60 hours at 30° C.
  OD600: 1.6 and 1.9
[4]; met 100 mg/l, XAD4, 24 hours at 30° C.
  Optical densities at 600 nm: 2.4 and 3.0
[5]
  Optical densities at 600 nm: 1.9 and 2.1
[6]
  Optical densities at 600 nm: 3.9 and 4.3
C. glutamicum M2014 [7]
  Optical densities at 600 nm: 4.6 and 4.8
[8]; MF + Met 100 mg/l, no oil
  Optical densities at 600 nm: 4.9 and 4.7
[8]; MF + Met + Mineral Oil
  Optical densities at 600 nm: 1.5 and 1.8
C. glutamicum M2014 [9]; MF + Met 100 mg/l, no oil
  Optical densities at 600 nm: 4.6 and 4.8
C. glutamicum M2014 [9]; MF + Met + Canola Oil
  Optical densities at 600 nm: 3.8 and 3.5
[10]; MF + Met 100 mg/l, no oil
  Optical densities at 600 nm: 4.9 and 4.7
[10]; MF + Met + Canola Oil
  Optical densities at 600 nm: 3.7 and 3.0
[11]
  OD600: 3.2 and 2.7
[12]
  OD600: 1.8
[13]
  OD600: 1.5 and 1.2

From patent publication US8399214B2 (Evonik Degussa GmbH, priority 2005, dated 2013)
